Where two headings read alike, the source gives them in different places.
How the values were obtained:
[1] = system: A549; assay: cells; type: cell-based, human; details: for IC50: Homo sapiens, A549, 72 h, read-out: A549 IC50 (nM), 72 h exposure, SRB, mean ± SD; for A549 SI: selectivity index = IC50 BALB/3T3 / IC50 A549
From the text: (§1) The A549 and MCF7 cell lines were purchased from the European Collection of Authenticated Cell Cultures (ECACC, Salisbury, U.K., 86012804 and 86012803). The LoVo cell line was purchased from the American Type Culture Collection (CCL-229, ATCC, Manassas, VA), and LoVo/DX by courtesy of Prof. E. Borowski (Technical University of Gdańsk, Gdańsk, Poland). The BALB/3T3 cell line was purchased from the American Type Culture Collection (CCL-163, ATCC, Manassas, VA). All of the cell lines are maintained in the Institute of Immunology and Experimental Therapy (IIET), Wroclaw, Poland.
(§2) A549 cells were cultured in a mixture of OptiMEM and Roswell Park Memorial Institute (RPMI) 1640 (1:1) medium (IIET, Wroclaw, Poland), supplemented with 10% fetal bovine serum HyClone (GE Healthcare) and 2 mM L-glutamine (Sigma-Aldrich, Germany). MCF7 cells were cultured in a mixture of Eagle’s medium (IIET, Wroclaw, Poland), supplemented with 10% fetal bovine serum, 2 mM L-glutamine, and insulin (Sigma-Aldrich, Germany). LoVo and LoVo/DX cells were cultured in F12K medium (Corning), supplemented with 10% fetal bovine serum HyClone (GE Healthcare) and 0.1 μg/mL doxorubicin (Accord) for LoVo/DX. BALB/3T3 fibroblasts were cultured in Dulbecco’s medium (Gibco), supplemented with 10% fetal bovine serum (GE Healthcare) and 2 mM L-glutamine (Sigma-Aldrich, Germany). All culture media contained antibiotics: 100 U/mL penicillin (Polfa-Tarchomin, Poland) and 0.1 mg/mL streptomycin (Sigma-Aldrich, Germany). All cell lines were cultured during entire experiment in humid atmosphere at 37 °C and 5% CO2.
(§3) All cell lines were exposed to each tested agent at different concentrations in the range 100–0.00001 μg/mL for 72 h. The cells were also exposed to the reference drug cisplatin (Teva Pharmaceuticals, Poland) and doxorubicin (Accord Healthcare Limited, U.K.). Additionally, all cell lines were exposed to dimethyl sulfoxide (DMSO) (solvent used for tested compounds) (POCh, Poland) at concentrations corresponding to those present in tested agents dilutions. After 72 h, sulforhodamine B (SRB) assay was performed.[57]
(§4) After 72 h of incubation with the tested compounds, the cells were fixed in situ by gently adding cold 50% trichloroacetic acid (TCA) (POCh, Poland) and were incubated at room temperature for 1 h. Then, the wells were washed four times with water and air-dried. Next, 0.1% solution of sulforhodamine B (Sigma-Aldrich, Germany) in 1% acetic acid (POCh, Poland) was added to each well and the plates were incubated at room temperature for 0.5 h. After incubation time, unbound dye was removed by washing plates four times with 1% acetic acid, whereas stain bound to cells was solubilized with 10 mM Tris base (Sigma-Aldrich, Germany). Absorbance of each solution was read at Synergy H4 Hybrid Multi-Mode Microplate Reader (BioTek Instruments) at the 540 nm wavelength.
(§5) IC50 values were calculated in Excel sheet using formulas adapted by Mateusz Psurski fromCheburator 0.4, Dmitry Nevozhay software (version 1.2.0 software by Dmitry Nevozhay, 2004–2014, http://www.cheburator.nevozhay.com, freely available) for each experiment.[58] Compounds at each concentration were tested in triplicate in a single experiment, and each experiment was repeated at least three times independently.

[2] = system: LoVo/DX; assay: cells; type: cell-based, human; details: for LoVo/DX RI: resistance index = IC50 LoVo/DX / IC50 LoVo; for LoVo/DX SI: selectivity index = IC50 BALB/3T3 / IC50 LoVo/DX
From the text: as §1, §2, §3, §4, §5

[3] = system: LoVo; assay: cells; type: cell-based, human; details: for IC50: Homo sapiens, LoVo, 72 h, read-out: LoVo IC50 (nM); for LoVo SI: selectivity index = IC50 BALB/3T3 / IC50 LoVo
From the text: as §1, §2, §3, §4, §5

[4] = system: MCF-7; assay: cells; type: cell-based, human; details: for IC50: Homo sapiens, MCF7, 72 h, read-out: MCF-7 IC50 (nM); for MCF-7 SI: selectivity index = IC50 BALB/3T3 / IC50 MCF-7
From the text: as §1, §2, §3, §4, §5

[5] = system: BALB/3T3; assay: In vitro antiproliferative activity, SRB assay, normal fibroblasts BALB/3T3; type: cell-based; details: Mus musculus, BALB/3T3, normal murine embryonic fibroblasts, 72 h, mean ± SD
From the text: as §1, §2, §3, §4, §5

[6] = system: A549, MCF-7, and LoVo cells; assay: Antiproliferative activity, values quoted jointly for three tumor lines; type: cell-based, human; details: Homo sapiens; summary of Table 1; read-out: IC50 against A549, MCF-7, and LoVo cells (span over the three lines)
From the text: as §1, §2, §3, §4, §5

[7] = Homo sapiens, LoVo/DX, 72 h, read-out: LoVo/DX IC50 (nM), 72 h exposure, SRB, mean ± SD

Compound | IC50 [1] [nM] | A549 SI [1] | IC50 [2, 7] [nM] | LoVo/DX RI [2] | LoVo/DX SI [2] | IC50 [3] [nM] | LoVo SI [3] | IC50 [4] [nM] | MCF-7 SI [4] | IC50 [5] [µM] | IC50 [6] [µM] | IC50 ([2]; read-out: LoVo/DX IC50, 72 h exposure, SRB, mean ± SD) [nM]
CNc1ccc2c(cc1=O)[C@@H](n1ccnn1)CCc1cc(OC)c(OC)c(OC)c1-2 [Compound 5] | 6.1 ± 1.1 | 1.8 | 55 ± 20 | 9.8 | 0.2 | 5.6 ± 0.6 | 2.0 | 5.6 ± 1 | 2.0 | 0.011 ± 0.0022 | 0.0031 to 0.0064 | 
CCCCc1cn([C@H]2CCc3cc(OC)c(OC)c(OC)c3-c3ccc(NC)c(=O)cc32)nn1 [Compound 7] | 6.4 ± 3.9 | 1.5 | < 30 | 7.4 | 0.4 | 3.1 ± 1.3 | 3.2 | 5.4 ± 3.7 | 1.8 | 0.0099 ± 0.0037 | 0.0031 to 0.0064 | 23 ± 11
CNc1ccc2c(cc1=O)[C@@H](n1cc(CN)nn1)CCc1cc(OC)c(OC)c(OC)c1-2 [Compound 8] | 70 ± 23 | 5.7 | 12000 ± 2400 | 86 | <0.1 | 140 ± 56 | 2.9 | 34 ± 16 | 11.8 | 0.4 ± 0.037 | 0.03 to 0.14 | 
CCOC(=O)c1nnn([C@H]2CCc3cc(OC)c(OC)c(OC)c3-c3ccc(NC)c(=O)cc32)c1C(=O)OCC [Compound 22] | 72 ± 27 | 1.5 | 580 ± 120 | 6.0 | 0.2 | 97 ± 24 | 1.1 | 93 ± 43 | 1.2 |  | 0.07 to 0.1 | 
CNc1ccc2c(cc1=O)[C@@H](n1cc(COC(=O)c3ccncc3)nn1)CCc1cc(OC)c(OC)c(OC)c1-2 [Compound 28] | 9.5 ± 2.9 | 1.3 | 1000 ± 94 | 130 | <0.1 | 7.9 ± 3.3 | 1.5 | 3.9 ± 1.1 | 3.1 | 0.012 ± 0.0011 |  | 
CNc1ccc2c(cc1=O)[C@@H](n1cc(CNC(=O)C(C)C)nn1)CCc1cc(OC)c(OC)c(OC)c1-2 [Compound 29] | 12 ± 2.4 | 4.0 | 2700 ± 600 | 190 | <0.1 | 14 ± 2.3 | 3.4 | 12 ± 3.2 | 4.0 | 0.048 ± 0.014 |  | 
CCCCCCCCCCCCCCCC(=O)NCc1cn([C@H]2CCc3cc(OC)c(OC)c(OC)c3-c3ccc(NC)c(=O)cc32)nn1 [Compound 30] | 16 ± 7.3 | 18.1 | 7300 ± 1100 | 24 | <0.1 | 300 ± 94 | 1.0 | 9.3 ± 2.4 | 31.2 | 0.29 ± 0.049 |  | 
CNc1ccc2c(cc1=O)[C@@H](n1cc(CNC(=O)CCC(F)(F)F)nn1)CCc1cc(OC)c(OC)c(OC)c1-2 [Compound 33] | 11 ± 0.1 | 2.5 | 3000 ± 800 | 270 | <0.1 | 11 ± 5.5 | 2.5 | 9.7 ± 3.4 | 2.8 | 0.027 ± 0.0087 |  | 
